The values that follow come from BindingDB's records for doi:10.7270/Q2JQ0ZH4 (Burnham Center For Chemical Genomics, 2011).

By IC50 is commonly meant the concentration at which inhibition is half-maximal. A lower IC50 goes with greater potency in that assay.

The assay addresses T1, Mitochondrial import inner membrane translocase subunit TIM10 (Saccharomyces cerevisiae (strain ATCC 204508 / S288c), UniProt P87108).
T1 sequence (P87108 whole entry): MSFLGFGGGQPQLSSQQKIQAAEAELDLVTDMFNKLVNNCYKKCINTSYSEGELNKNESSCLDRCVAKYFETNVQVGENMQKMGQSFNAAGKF
Put plainly: tim10-1 yeast luminescent signal inhibition – luminescence, S. cerevisiae, uHTS hits, counter-screen for tim23-1 inhibitor project, dose response (AID 504657).
The compound `COC(=N)C(C#N)N=Cc1ccccc1Cl` (stereo not given) [(E)-3-amino-2-[(2-chlorophenyl)methylideneamino]-3-methoxy-2-propenenitrile] showed an IC50 of more than 100 µM. Consider `C(=CN=Nc1nc2ccccc2[nH]1)Cc1ccccc1` [MLS000390936], for which the IC50 is more than 100 µM. `O=C1c2ccccc2-c2n[nH]c3cccc1c23` had an IC50 of more than 100 µM. Take `Cc1ccc2nc(-n3c(O)c[nH]c3=S)sc2c1`: the IC50 is more than 100 µM. The compound `Oc1ccccc1C1=NNC(c2ccccc2)S1` (stereo not given) [MLS001212798] registered an IC50 of more than 100 µM.
